Results reported in ChEMBL document CHEMBL6083197, “Design, synthesis, inhibitory activity, and molecular simulations study for d-glucose-conjugated thioureas containing pyrimidine ring as multitarget inhibitors against α-amylase, α-glucosidase, DDP-4, and PTP1B in Type 2 diabetes mellitus” (RSC Med Chem, 2024).
Values after ≈ are worked out from the molar mass of the structure shown. Each block holds one compound with its values, some of them ahead of it.

Key:
[1] = target: T1, Dipeptidyl peptidase 4 (Homo sapiens, UniProt P27487); assay: Inhibition of recombinant human DPP-4 using Gly-Pro-AMC as substrate by fluorometric assay
[2] = target: T1, Dipeptidyl peptidase 4; assay: Inhibition of DPP-4 (unknown origin)
[3] = Inhibition of alpha-amylase (unknown origin) using starch as substrate preincubated for 10 mins followed by substrate addition and measured after 10 mins by 3, 5-dinitrosalicylic acid reagent based microplate reader assay
[4] = Inhibition of alpha-glucosidase (unknown origin) using p-nitrophenyl-alpha-D-glucoside as substrate preincubated for 5 mins followed by substrate addition and measured after 20 mins by microplate reader assay
[5] = Inhibition of alpha-amylase (unknown origin) using starch as substrate incubated for 10 mins by DNS reagent based spectrometric assay; set-up: species or system Homo sapiens
[6] = Inhibition of alpha-glucosidase (unknown origin) using p-nitrophenyl-glucopyranoside as substrate incubated for 10 mins; set-up: species or system Homo sapiens
[7] = Inhibition of alpha-amylase (unknown origin) using starch as substrate preincubated for 10 mins followed by substrate addition and measured after 10 mins by DNSA reagent based spectrophotometric assay; set-up: species or system Homo sapiens

T1 sequence (P27487 whole entry): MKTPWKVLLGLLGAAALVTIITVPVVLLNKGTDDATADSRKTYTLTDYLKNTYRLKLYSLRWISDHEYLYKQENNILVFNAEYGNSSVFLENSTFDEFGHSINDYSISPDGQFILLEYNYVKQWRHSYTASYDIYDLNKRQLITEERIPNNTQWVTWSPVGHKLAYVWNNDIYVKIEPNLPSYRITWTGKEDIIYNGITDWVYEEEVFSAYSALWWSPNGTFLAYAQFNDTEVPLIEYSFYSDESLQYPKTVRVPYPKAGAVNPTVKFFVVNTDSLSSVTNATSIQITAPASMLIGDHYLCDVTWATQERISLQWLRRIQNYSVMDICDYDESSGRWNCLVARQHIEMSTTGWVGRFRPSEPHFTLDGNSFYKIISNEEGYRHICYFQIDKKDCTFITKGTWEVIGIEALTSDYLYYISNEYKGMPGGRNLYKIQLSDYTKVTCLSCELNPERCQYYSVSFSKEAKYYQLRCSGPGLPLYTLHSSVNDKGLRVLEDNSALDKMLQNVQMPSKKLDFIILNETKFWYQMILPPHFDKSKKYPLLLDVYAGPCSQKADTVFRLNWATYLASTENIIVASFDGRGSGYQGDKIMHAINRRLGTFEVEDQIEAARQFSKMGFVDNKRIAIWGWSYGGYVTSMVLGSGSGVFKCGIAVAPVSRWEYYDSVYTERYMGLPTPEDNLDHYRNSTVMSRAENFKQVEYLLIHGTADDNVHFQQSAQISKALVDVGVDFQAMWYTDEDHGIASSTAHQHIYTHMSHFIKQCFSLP

Structure (SMILES): O=C(SC1=NC(c2ccc(Cl)cc2)=CC(c2ccc([N+](=O)[O-])cc2)N1)c1ccccc1CN1C(=O)c2ccccc2C1=O (configuration not stated)
IC50 [1]: 0.00051 µM

Structure (SMILES): CN(C)/C(N)=N/c1nc(-c2ccccc2)cc(-c2c[nH]c3ccccc23)n1
IC50 [5]: 49.5 µg/mL (≈ 139 µM) | IC50 [6]: 55.98 µg/mL (≈ 157 µM)

Continued, values first:

IC50 [2]: 0.0029 µM
Structure (SMILES): Nc1nc(NC2=NC(c3ccccc3)=CC(c3cccc([N+](=O)[O-])c3)N2)nc(N2CCOCC2)n1 (configuration not stated)

IC50 [3]: 9.32 µM | IC50 [4]: 7.2 µM
Structure (SMILES): C[C@H]1O[C@H](O[C@H]2[C@H](O)[C@@H](O)[C@@H](O[C@H]3[C@H](O)[C@@H](O)C(O)O[C@@H]3CO)O[C@@H]2CO)[C@H](O)[C@@H](O)[C@@H]1N[C@H]1C=C(CO)[C@@H](O)[C@H](O)[C@H]1O (some centres not stated) [ACARBOSE]

IC50 [7]: 24.23 µg/mL (≈ 50.3 µM)
Structure (SMILES): CCOC(=O)C1=C(C)NC(=O)NC1c1ccc(Nc2cccc3c2C(=O)c2ccccc2C3=O)cc1 (configuration not stated)
